{
  "source": "patent US20120065179A1",
  "about": "“PRODRUG COMPRISING BETA-KETO CARBOXYLIC ACID, BETA-KETO CARBOXYLIC ACID SALT OR BETA-KETO CARBOXYLIC ACID ESTER FOR DRUG DELIVERY” (YKI, Ytemiska Institutet AB, priority 2009, published 2012)",
  "key": {"[1]": {"details": "pH 7"}, "[2]": {"experiment": "Sustained release of acetophenone in vitro in model blood electrolyte solution at 37° C.", "type": "physicochemical", "details": "for Concentration of sodium benzoyl acetate model prodrug in sample: model blood electrolyte solution pH 7.4", "experimental": "(§1) A 0.2 M solution of ethyl benzoyl acetate (90%, Sigma Aldrich) in 0.5 M NaOH (aq) was prepared at room temperature and stirred for typically 5-24 hours, still at room temperature. After this time a major part of the ethyl benzoyl acetate had been transformed into dissolved sodium benzoyl acetate, as evidenced by monitoring the reaction by analysis of samples by reversed phase HPLC. Some acetophenone and remaining ethyl benzoyl acetate were typically present in the samples, but in minor amounts. The method employed a C8 column with an inner diameter of 150×4.6 mm and 5 micron particles. The mobile phase consisted of 400 ml deionized water+600 ml acetonitrile+0.196 g H3PO4 (85%)+2.760 g NaH2PO4*H2O. The flow rate was set to 1.0 mL/min and UV detection at 254 nm was employed for analysis of the compounds ethylbenzoylacetate (precursor), benzoylacetate (model prodrug) and acetophenone (model drug).\nEthyl benzoyl acetate was saponified according to the description in Example 1, and after 7 hours a solution containing about 0.2 M of the sodium salt of benzoyl acetate was obtained."}, "[3]": {"experiment": "Storage stability of benzoylacetate salts and their corresponding acid (HPLC or gravimetric)", "type": "physicochemical", "details": "for % relative to initial sample amount (by HPLC): stored in freezer (ca −18° C.)", "experimental": "as §1\nThe storage stability of the sodium and calcium salts of benzoylacetate, and of benzoylacetic acid, in solid form, and in aqueous solutions, was investigated by storage of samples under various conditions (see Table 3a above) with regular HPLC- or gravimetric measurements of the samples from time to time. Samples denoted “neutralized” were prepared from a solution prepared as described in Example 1, which was neutralized with diluted HCl after performing the steps in Example 1.\nFrom the data it can be concluded that the best storage stability at room temperature is obtained by storage in the form of the calcium salt."}},
  "note": "Like-named read-outs stand apart in the source and are kept apart here. Marks after values point to notes of the source that are not given here.",
  "data": [
    {"smiles": "O=C([O-])CC(=O)c1ccccc1.[Na+]", "note": "[sodium benzoylacetate]", "values": [
      {"measurement": "Solubility", "setting": "[1]", "result": "≧200 mM"},
      {"measurement": "half-life at 2 mM", "setting": "[2]; model blood electrolyte solution pH 7.4, 37° C., read-out: estimated half-life (converted)", "result": "~20", "unit": "h"},
      {"measurement": "Concentration of sodium benzoyl acetate model prodrug in sample", "setting": "[2]; Time @ 37° C. 0.42", "result": 2660, "unit": "µM"},
      {"measurement": "Concentration of sodium benzoyl acetate model prodrug in sample", "setting": "[2]; Time @ 37° C. 2.25", "result": 2300, "unit": "µM"},
      {"measurement": "Concentration of sodium benzoyl acetate model prodrug in sample", "setting": "[2]; Time @ 37° C. 3.17", "result": 2440, "unit": "µM"},
      {"measurement": "Concentration of sodium benzoyl acetate model prodrug in sample", "setting": "[2]; Time @ 37° C. 4.17", "result": 2400, "unit": "µM"},
      {"measurement": "Concentration of sodium benzoyl acetate model prodrug in sample", "setting": "[2]; Time @ 37° C. 6.17", "result": 1710, "unit": "µM"},
      {"measurement": "Concentration of sodium benzoyl acetate model prodrug in sample", "setting": "[2]; Time @ 37° C. 8.25", "result": 1960, "unit": "µM"},
      {"measurement": "Concentration of sodium benzoyl acetate model prodrug in sample", "setting": "[2]; Time @ 37° C. 10.17", "result": 1690, "unit": "µM"},
      {"measurement": "Concentration of sodium benzoyl acetate model prodrug in sample", "setting": "[2]; Time @ 37° C. 12.17", "result": 1590, "unit": "µM"},
      {"measurement": "Concentration of sodium benzoyl acetate model prodrug in sample", "setting": "[2]; Time @ 37° C. 13.92", "result": 1520, "unit": "µM"},
      {"measurement": "Concentration of sodium benzoyl acetate model prodrug in sample", "setting": "[2]; Time @ 37° C. 17.92", "result": 1430, "unit": "µM"},
      {"measurement": "Concentration of sodium benzoyl acetate model prodrug in sample", "setting": "[2]; Time @ 37° C. 21.17", "result": 1310, "unit": "µM"},
      {"measurement": "Concentration of sodium benzoyl acetate model prodrug in sample", "setting": "[2]; Time @ 37° C. 24.92", "result": 1020, "unit": "µM"},
      {"measurement": "Concentration of sodium benzoyl acetate model prodrug in sample", "setting": "[2]; Time @ 37° C. 31.33", "result": 940, "unit": "µM"},
      {"measurement": "Concentration of sodium benzoyl acetate model prodrug in sample", "setting": "[2]; Time @ 37° C. 48.75", "result": 530, "unit": "µM"},
      {"measurement": "Concentration of sodium benzoyl acetate model prodrug in sample", "setting": "[2]; Time @ 37° C. 76.33", "result": 200, "unit": "µM"},
      {"measurement": "Solubility", "setting": "physchem; pH 7, water, Solubility", "result": "> 200", "unit": "mM"},
      {"measurement": "Solubility", "setting": "physchem; water, Solubility (mM, as acetophenone equivalents)", "result": "≥ 200", "unit": "mM"},
      {"measurement": "% relative to sample amount remaining after 2 days (by HPLC)", "setting": "[3]; Alkaline solution of Na-benzoyl acetate from Example 1, stored at room T, storage time 2 days", "result": 100.0, "unit": "%"},
      {"measurement": "% relative to sample amount remaining after 2 days (by HPLC)", "setting": "[3]; Alkaline solution of Na-benzoyl acetate from Example 1, stored at room T, storage time 8 days", "result": 66.2, "unit": "%"},
      {"measurement": "% relative to sample amount remaining after 2 days (by HPLC)", "setting": "[3]; Alkaline solution of Na-benzoyl acetate from Example 1, stored at room T, storage time 23 days", "result": 10.0, "unit": "%"},
      {"measurement": "% relative to sample amount remaining after 2 days (by HPLC)", "setting": "[3]; Neutralized solution of Na-benzoyl acetate from Example 1 (pH 7.1), at room T, storage time 2 days", "result": 100.0, "unit": "%"},
      {"measurement": "% relative to sample amount remaining after 2 days (by HPLC)", "setting": "[3]; Neutralized solution of Na-benzoyl acetate from Example 1 (pH 7.1), at room T, storage time 8 days", "result": 52.0, "unit": "%"},
      {"measurement": "% relative to sample amount remaining after 2 days (by HPLC)", "setting": "[3]; Neutralized solution of Na-benzoyl acetate from Example 1 (pH 7.1), at room T, storage time 23 days", "result": 8.9, "unit": "%"},
      {"measurement": "% relative to sample amount remaining after 2 days (by HPLC)", "setting": "[3]; Solid Na-salt, neutralized, 30-50% RH at room T, storage time 2 days", "result": 100.0, "unit": "%"},
      {"measurement": "% relative to sample amount remaining after 2 days (by HPLC)", "setting": "[3]; Solid Na-salt, neutralized, 30-50% RH at room T, storage time 8 days", "result": 84.8, "unit": "%"},
      {"measurement": "% relative to sample amount remaining after 2 days (by HPLC)", "setting": "[3]; Solid Na-salt, neutralized, 30-50% RH at room T, storage time 23 days", "result": 33.4, "unit": "%"},
      {"measurement": "% of absolute amount expected to be present in sample (by HPLC)", "setting": "[3]; Solid Na-salt, neutralized, 30-50% RH at room T, storage time 185 days", "result": "1.3*** %"},
      {"measurement": "% of absolute amount expected to be present in sample (by HPLC)", "setting": "[3]; Solid Na-salt, neutralized, stored at 6° C., storage time 0 days", "result": 103.1, "unit": "%"},
      {"measurement": "% of absolute amount expected to be present in sample (by HPLC)", "setting": "[3]; Solid Na-salt, neutralized, stored at 6° C., storage time 2 days", "result": 112.6, "unit": "%"},
      {"measurement": "% of absolute amount expected to be present in sample (by HPLC)", "setting": "[3]; Solid Na-salt, neutralized, stored at 6° C., storage time 5 days", "result": 109.2, "unit": "%"},
      {"measurement": "% of absolute amount expected to be present in sample (by HPLC)", "setting": "[3]; Solid Na-salt, neutralized, stored at 6° C., storage time 8 days", "result": 102.0, "unit": "%"},
      {"measurement": "% of absolute amount expected to be present in sample (by HPLC)", "setting": "[3]; Solid Na-salt, neutralized, stored at 6° C., storage time 12 days", "result": 100.7, "unit": "%"},
      {"measurement": "% of absolute amount expected to be present in sample (by HPLC)", "setting": "[3]; Solid Na-salt, neutralized, stored at 6° C., storage time 16 days", "result": 98.5, "unit": "%"},
      {"measurement": "% of absolute amount expected to be present in sample (by HPLC)", "setting": "[3]; Solid Na-salt, neutralized, stored at 6° C., storage time 21 days", "result": 81.9, "unit": "%"},
      {"measurement": "% of absolute amount expected to be present in sample (by HPLC)", "setting": "[3]; Solid Na-salt, neutralized, stored at 6° C., storage time 37 days", "result": 74.6, "unit": "%"},
      {"measurement": "% of absolute amount expected to be present in sample (by HPLC)", "setting": "[3]; Solid Na-salt, neutralized, stored at 6° C., storage time 49 days", "result": 72.3, "unit": "%"},
      {"measurement": "% of absolute amount expected to be present in sample (by HPLC)", "setting": "[3]; Solid Na-salt, neutralized, stored at 60° C., storage time 0.02 days", "result": 77.2, "unit": "%"},
      {"measurement": "% of absolute amount expected to be present in sample (by HPLC)", "setting": "[3]; Solid Na-salt, neutralized, stored at 60° C., storage time 0.8 days", "result": 10.7, "unit": "%"},
      {"measurement": "% of absolute amount expected to be present in sample (by HPLC)", "setting": "[3]; Solid Na-salt, neutralized, stored at 60° C., storage time 9.1 days", "result": 3.6, "unit": "%"},
      {"measurement": "% relative to initial sample amount (by HPLC)", "setting": "[3]; Solid Na-salt, neutralized, storage time 0 days", "result": 100, "unit": "%"},
      {"measurement": "% relative to initial sample amount (by HPLC)", "setting": "[3]; Solid Na-salt, neutralized, storage time 2 days", "result": 100, "unit": "%"},
      {"measurement": "% relative to initial sample amount (by HPLC)", "setting": "[3]; Solid Na-salt, neutralized, storage time 5 days", "result": 124, "unit": "%"},
      {"measurement": "% relative to initial sample amount (by HPLC)", "setting": "[3]; Solid Na-salt, neutralized, storage time 8 days", "result": 106, "unit": "%"},
      {"measurement": "% relative to initial sample amount (by HPLC)", "setting": "[3]; Solid Na-salt, neutralized, storage time 12 days", "result": 112, "unit": "%"},
      {"measurement": "% relative to initial sample amount (by HPLC)", "setting": "[3]; Solid Na-salt, neutralized, storage time 16 days", "result": 106, "unit": "%"},
      {"measurement": "% relative to initial sample amount (by HPLC)", "setting": "[3]; Solid Na-salt, neutralized, storage time 21 days", "result": 101, "unit": "%"},
      {"measurement": "% relative to initial sample amount (by HPLC)", "setting": "[3]; Solid Na-salt, neutralized, storage time 37 days", "result": 105, "unit": "%"},
      {"measurement": "% relative to initial sample amount (by HPLC)", "setting": "[3]; Solid Na-salt, neutralized, storage time 49 days", "result": 117, "unit": "%"},
      {"measurement": "% relative to sample amount remaining after 2 days (by HPLC)", "setting": "[3]; Solid Na-salt, non neutralized, 30-50% RH at room T, storage time 2 days", "result": 100.0, "unit": "%"},
      {"measurement": "% relative to sample amount remaining after 2 days (by HPLC)", "setting": "[3]; Solid Na-salt, non neutralized, 30-50% RH at room T, storage time 8 days", "result": 46.8, "unit": "%"},
      {"measurement": "% relative to sample amount remaining after 2 days (by HPLC)", "setting": "[3]; Solid Na-salt, non neutralized, 30-50% RH at room T, storage time 23 days", "result": 12.4, "unit": "%"}
    ]}
  ]
}
